Our source for the EC50 and CC50 values is patent publication US10933067B2, “Nucleoside derivative having physiological activity such as antiviral activity” (NATIONAL CENTER FOR GLOBAL HEALTH AND MEDICINE, priority 2016, dated 2021).

Usually EC50 stands for the concentration that produces a half-maximal response. As usually defined, the CC50 is the concentration that lowers cell viability or growth by half.

Like-named read-outs stand apart in the source and are kept apart here.

Holding throughout (format): cell-based
One data set has as its system HIV-1 LAI. As to the kind of experiment: Evaluation of anti-HIV activity (MT-2 cells exposed to HIV-1 LAI, MTT assay). Particulars: Human immunodeficiency virus 1, MT2, 168 h, 7 days, read-out: Antiviral activity, EC50 HIV-1. An excerpt:
HIV-1 LAI was used as a wild-type HIV-1 molecular clone. In addition, MT-2 cells were used as cells to be infected. These cells were continuously cultured and maintained in a RPMI-1640 medium containing 10% FCS and supplemented with the aforementioned antibiotics. The MT-2 cells were exposed to HIV-1 LAI virus in an amount of 50 times the 50% infectious concentration (TCID 50), and the resultant MT-2 cells and a medium supplemented with each of the nucleoside derivatives at each of concentrations after serial dilution were together seeded into each cell of a 96-well cell culture dish at a concentration of 1×10^4 cells/mL. Then, after culturing for 7 days in the presence of each nucleoside derivative under standard culture conditions of 37° C. and 5% CO2, the number of live cells in each well was quantified by MTT assay. Based on the numbers of live cells obtained, the EC50 value was calculated and the anti-HIV activity of each nucleoside derivative was evaluated.
(Tetrazolium dyes change colour on reduction, which living cells bring about.)

The subject of another data set is HBV. In words: Evaluation of anti-HBV activity (HepG2 2.2.15.7 cells, HBV DNA qPCR). The conditions noted are these: Hepatitis B virus. As to the method:
HepG2 2.2.15.7 cells were used as test cells. The HepG2 2.2.15.7 cells were prepared by using, as parent cell lines, HepG2 2.2.15 cells prepared so as to continuously produce HBV by introducing the HBV genes into human hepatoma cell lines (HepG2 cells). Meanwhile, the HepG2 2.2.15.7 cells were maintained by continuous culturing in DMEM containing 10% fetal calf serum, G418 (500 μg/ml), and antibiotics (penicillin and kanamycin).
The HepG2 2.2.15.7 cells are HBV continuously producing cells that carry not only genomically integrated DNAs, but also HBV genes produced as episomes. Therefore, the HepG2 2.2.15.7 cells were co-cultured with each nucleoside derivative, the DNA copy number of viruses released into the culture supernatant and the DNA copy number of the viruses present in the HepG2 2.2.15.7 cells were quantified, and a degree of decrease thereof was used as an index of the evaluation of the anti-HBV activity.
More specifically, the epG2 2.2.15.7 cells with a cell viability of 90% or more were seeded in a collagen-coated 96-well cell culture dish at a concentration of 2×10^4 cells/ml, and each nucleoside derivative was added at various concentrations at the same day as the cell seeding. After culturing for 3 days under the standard culture conditions of 37° C. and 5% CO2, the medium was exchanged to a fresh medium containing each nucleoside derivative, and HBV DNA was collected from the culture supernatant on the third day after the exchange for a 1W assay (an assay on day 7 from the start of culture). In addition, a fresh medium containing each nucleoside derivative was further added to the cell plate after the collection of the supernatant, and the culture was further continued for 7 days. For a 2W assay (an assay on day 14 from the start of culture), intracellular HBV DNAs were collected from the HepG2 2.2.15.7 cells. Using these DNAs as a template, the quantitative PCR was performed to find the virus copy number from the calibration curve, and the 50% effect (EC50) for each nucleoside derivative was calculated.
The DNA extractions from the supernatant of the HepG2 2.2.15.7 cells and from inside the cells were carried out using QIAamp Mini Elute virus Spin Kit (manufactured by QIAGEN), and 5 μL of the extracted DNAs was used for the qPCR. The PCR reaction was conducted by using a specific TaqMan probe primer, manufactured by Primer Design Ltd., which detects the HBV core protein region. The PCR reaction was carried out at 95° C. for 15 minutes, followed by 50 cycles of 95° C. for 10 seconds and 60° C. for 60 seconds. The obtained CT was converted to the HBV copy number using a calibration curve obtained from reactions in which HBV DNA fragments at a known concentration were diluted every 10-fold (from to 2×10^8 copies).
A general note: Quantitative PCR measures a nucleic acid by following its amplification.

Data set [1] in a line: Cytotoxicity test 1, MT-2 cells (MTT assay). Particulars: human. The procedure: (§1) The above nucleoside derivatives were also subjected to cytotoxicity tests on the MT-2 cells and HepG2 cells. Together with the medium to which each nucleoside derivative at each concentration after serial dilution was added, the MT-2 cells were seeded at a concentration of 1×10^4, whereas the HepG2 cells were seeded at a concentration of 1×10^4. Thus, these cells were cultured in the presence of each nucleoside derivative at various concentrations for 7 days under the standard culture conditions of 37° C. and 5% CO2, and thereafter the number of live cells in each well was quantified by an MTT assay. Based on the numbers of live cells obtained, the CC50 was calculated for each nucleoside derivative.

The nature of data set [2]: Cytotoxicity test 1, HepG2 cells (MTT assay). Particulars: human. The procedure:
as §1

Data set [3] can be described thus: Cytotoxicity test 2, PXB cells (MTT assay). Particulars: PXB cells (fresh human hepatocytes). As to the method: PXB cells were used as test cells. PXB cells were fresh human hepatocytes isolated from chimeric mice with humanized liver and were maintained in a dHCGM medium for PXB cells. Both the cells and the medium are made by PhoenixBio Co., Ltd.
The PXB cells were seeded at 3×10^5 cells/ml on a collagen-coated 96-well plate and cultured together with each compound at each concentration after stepwise dilution for 7 days under the standard culture conditions of 37° C. and 5% CO2, and thereafter the number of live cells in each well was quantified by an MTT assay. Based on the obtained values, the degree of cytotoxicity was determined, and the CC50 value was calculated as the cytotoxicity of each compound.

Data set [4] concerns ETV resistant strain (genotype: HBV/Ce). In words: Evaluation of anti-HBV/Ce activity (Huh-7 cells transfected with ETV resistant strain, Southern blot). The conditions noted are these: Hepatitis B virus, Huh-7, 72 h, read-out: Antiviral activity, EC50 HBV ETVr. The procedure: Regarding the above nucleoside derivatives, each nucleoside derivative was added to Huh-7 cells transfected with an ETV resistant strain (genotype: HBV/Ce, referred to as “HBV ETVr” in Table 1). After 72 hours from the addition, DNAs were extracted from the cells according to a conventional method, and analyzed by Southern blot using a probe for the HBV gene. Thus, the DNA copy number of the viruses was quantified, and the EC50 value was calculated in the same way as described above.

Where [5] appears, read: 336 h, day 14, intracellular HBV DNA, read-out: Antiviral activity, EC50 HBV 2W assay.

For the molecule `C=C[C@]1(CO)C(=C)[C@@H](n2cnc3c(=O)[nH]c(N)nc32)C[C@@H]1O`, the 50% effective concentration (EC50) in the data set on HIV-1 LAI and with HBV (setting [5]) was > 1000 nM in each case. Also, the CC50 at 7 days in data set [1] and in data set [2] was > 100000 nM in each case.
Regarding `C=C1[C@@H](n2cnc3c(=O)[nH]c(N)nc32)C[C@H](O)[C@]1(CO)CF`, the EC50 is > 1000 nM in the data set with HIV-1 LAI and 90 nM in the data set on HBV (setting [5]). For the same molecule, the 50% cytotoxic concentration (CC50) at 7 days in data set [1] and in data set [2] was > 100000 nM in each case.
As to `C=C1[C@@H](n2cnc3c(=O)[nH]c(N)nc32)C[C@H](O)[C@@]1(C#N)CO`, the figures for the 50% effective concentration (EC50) in the data set with HIV-1 LAI and in the data set with HBV (setting [5]) were 160 nM and 30 nM, respectively. In addition, the CC50 at 7 days in data set [1] was > 100000 nM; in data set [2], 89000 nM.
For `C=C1[C@@H](n2cnc3c(=O)[nH]c(N)nc32)C[C@H](O)[C@@]1(O)CO` the same measures were > 1000 nM, 10 nM, > 100000 nM and 67000 nM.
`C#C[C@]1(CO)C(=C)[C@@H](n2cnc3c(=O)[nH]c(N)nc32)C[C@@H]1O`: the EC50 was 27 nM with HIV-1 LAI and > 1000 nM with HBV (setting [5]). The 50% cytotoxic concentration (CC50) at 7 days in data set [1] and in data set [2] was > 100000 nM in each case.
For the molecule `N#C[C@]1(CO)/C(=C\F)[C@@H](n2cnc3c(=O)[nH]c(N)nc32)C[C@@H]1O` [(1S,3S,5S,E)-3-(2-Amino-6-oxo-1,6-dihydro-9H-purin-9-yl)-2-(fluoromethylene)-5-hydroxy-1-(hydroxymethyl)cyclopentane-1-carbonitrile], the EC50 worked out at 20 nM in the data set with HIV-1 LAI; 3 nM with HBV (168 h, day 7, HBV DNA in culture supernatant, read-out: Antiviral activity, EC50 HBV 1W assay); 7 nM in the data set with HBV (setting [5]); 65.3 nM in data set [4]. For the same molecule, the values for the CC50 at 7 days in data set [3], in data set [1] and in data set [2] were > 100000 nM, > 100000 nM and 50000 nM, respectively.
